Measurements published in patent publication US20240268380A1, “USE OF ESSENTIAL OILS AS BIOSTIMULANTS FOR MYCELIA AND MUSHROOMS” (MYCELIANCE, priority 2021, published 2024).

Test system: Agaricus bisporus mycelium
Test: Stimulation of the growth of Agaricus bisporus mycelium on PDA culture medium
Assay type: cell-based
Settings: for effect on the growth of the Agaricus bisporus mycelium: purified terpene at 40 μL/L, TripleX make (Amycel)
Description: • Mixing, in a sterile container, the essential oil or oils or the terpene or terpenes selected according to the invention, with the surfactant or surfactants, in equal portions: […], therefore preparing 200 μl in total.
• Preparing 2 times 1 litre of PDA in accordance with the instructions of the supplier, in separate containers. • Sterilising the two solutions at the same time, 15 minutes at 121° C. in an autoclave.
• Waiting until the two solutions drop in temperature, to reach approximately 40° C. • Homogenising and then pouring the composition of biostimulants, into one of the two containers. • Pouring the same volume of the surfactant or surfactants used, into the second container. • Placing under stirring, and then pouring the 2 litres of solutions into annotated petri dishes. • Placing the petri dishes in an incubator at 23° C.±1° C. and 80% humidity.
• Inoculating all the petri dishes with the mushroom strain selected. • Re-placing the petri dishes in an incubator at 23° C.±1° C. and 80% humidity.
• After 7 days, tracing the contour of the mycelium under the petri dishes, with a fine marker. • Once again tracing the contour of the mycelium after 14 and 21 days following the inoculation. • Measuring its growth to within 0.5 mm, on 4 axes separated by 90°, for each petri dish. • Calculating the mean growths measured, then determining the percentage inhibition or biostimulation compared with the reference, which contains only the surfactant or surfactants, without the essential oil or oils or the terpene and terpenes use.
The manipulations for each essential oil tested were reproduced 40 times, using the Agaricus bisporus mycelium of Heirloom make, supplied by the American company Amycel.
The tests were performed on three strains of Agaricus bisporus (of Heirloom and TripleX makes from the company Amycel and Tuscan from the company Sylvan) with the purified terpene ([…]. […]

Structure (SMILES)	effect on the growth of the Agaricus bisporus mycelium	effect on the growth of the mycelia of three strains of Agaricus bisporus (purified terpene, Heirloom and TripleX makes at 40 or 80 μL/L, Tuscan make at 80 or 100 μL/L, effect reinforced by increasing the concentration)
CC1=CCC2CC1C2(C)C (stereo not drawn) [α-pinene, reference compound]	inhibiting effect	–
C=C1CCC2CC1C2(C)C (stereo not drawn) [β-pinene]	biostimulant effect	very marked effect of biostimulation
